This passage reports Emax and IC50 results from patent US20260207621A1 (Vividion Therapeutics, Inc., priority 2022, published 2026).

One assay has as its system Nrf2. Description: Nrf2 antagonism assay: ARE luciferase reporter in KYSE-70 cells. To be noted: Homo sapiens, KYSE-70, KYSE-70 cells, positive Imax corresponds to Nrf2 antagonism, read-out: KYSE70 Cellular ARE Luciferase Imax (%). The assay is classed as cell-based. The essentials:
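KYSE-70 esophageal squamous carcinoma cells carrying Nrf2 W24C (constitutively Nrf2-high) with an ARE-driven luciferase reporter. Loss of luciferase signal reflects Nrf2 antagonism via KEAP1 C151 engagement. IC50 and Imax come from dose-response curves; positive Imax means antagonism.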

A further assay deals with T1, KEAP1 C151 (Homo sapiens, UniProt Q14145).
T1 construct: treating 500 μg of cell lysate generated from MDA-MB-468 breast cancer cells with DMSO or compound; endogenous in cells; host or cells: MDA-MB-468 breast cancer cell lysate
Description: Nrf2 TMT measurement: in vitro TE50 for KEAP1 C151 (IA-DTB competition, targeted TMT mass spectrometry) in MDA-MB-468 cell lysate. The assay is classed as binding. Particulars: in vitro target engagement of KEAP1 C151, targeted TMT, read-out: KEAP1_C151 TE50. As for the experimental part:
In vitro TE50 values for KEAP_C151 were obtained by treating 500 μg of cell lysate generated from MDA-MB-468 breast cancer cells with DMSO or compound for 1 hour at room temperature followed by the addition of 200 μM IA-DTB (in DMSO) for one hour at room temperature. Samples were then precipitated by the addition of 8× ice cold acetonitrile and incubated at −80° C. for two hours. Protein was then pelleted by centrifugation (4,200 RPM, 45 min, 4° C.). The pelleted material was resuspended in 9M Urea, 50 mM ammonium bicarbonate and proteins were reduced and alkylated by the addition of DTT and iodoacetamide (10 and 30 mM, respectively). Following reduction and alkylation, samples were exchanged into 2M urea (Zeba spin desalting plates, Thermo Fisher) and digested with Trypsin. IA-DTB labeled peptides were isolated with streptavidin agarose resin. Enriched peptides were eluted by the addition of 50% acetonitrile (ACN) 0.1% Formic Acid (FA) and dried in a SpeedVac vacuum concentrator.
Dried peptides were resuspended in 0.2 M EPPS pH 8.5 and treated with 6.5 μL of 11-plex tandem mass tag (TMT) (8.3 μg/μL in dry ACN) for 2 hours at room temperature. Reactions were quenched by the addition of 6.5 μL of 5% Hydroxylamine. Samples were then combined and desalted on a Biotage Evolute express ABN plate (600-0010-PX01).
Targeted TMT. Targeted TMT measurements were collected using an Orbitrap LumosTribrid Mass Spectrometer (Thermo Scientific) coupled to an UltiMate 3000 Series Rapid Separation LC system and autosampler (Thermo Scientific Dionex). Peptides were eluted onto a custom C18 capillary analytical column (75-μm inner diameter fused silica, packed with Acclaim PepMap C18 resin (Thermo Scientific)) using an Acclaim PepMap 100 (Thermo 164535) loading column, and separated at a flow rate of 1.0 μl min−1. Data were acquired using a specific MS3-based TMT method targeting the peptide containing KEAP1 C151 (C(+324.2)[…], +3 charge state) where MS2 peptide fragmentation is triggered upon detection of the peptide precursor ion. Subsequent MS3 analysis was then performed using pre-selected peptide fragment ions that were isolated for fragmentation using synchronous precursor selection. RAW files were converted to MZXML format and searched with the SEQUEST algorithm using the MassPike software package. TMT quantitation was performed with a filter requiring at least ten summed signal-to-noise for control channels. Quantified signals were used for dose response curve-fitting and IC50 calculation using R's drc package.

T1 sequence (Q14145 whole entry): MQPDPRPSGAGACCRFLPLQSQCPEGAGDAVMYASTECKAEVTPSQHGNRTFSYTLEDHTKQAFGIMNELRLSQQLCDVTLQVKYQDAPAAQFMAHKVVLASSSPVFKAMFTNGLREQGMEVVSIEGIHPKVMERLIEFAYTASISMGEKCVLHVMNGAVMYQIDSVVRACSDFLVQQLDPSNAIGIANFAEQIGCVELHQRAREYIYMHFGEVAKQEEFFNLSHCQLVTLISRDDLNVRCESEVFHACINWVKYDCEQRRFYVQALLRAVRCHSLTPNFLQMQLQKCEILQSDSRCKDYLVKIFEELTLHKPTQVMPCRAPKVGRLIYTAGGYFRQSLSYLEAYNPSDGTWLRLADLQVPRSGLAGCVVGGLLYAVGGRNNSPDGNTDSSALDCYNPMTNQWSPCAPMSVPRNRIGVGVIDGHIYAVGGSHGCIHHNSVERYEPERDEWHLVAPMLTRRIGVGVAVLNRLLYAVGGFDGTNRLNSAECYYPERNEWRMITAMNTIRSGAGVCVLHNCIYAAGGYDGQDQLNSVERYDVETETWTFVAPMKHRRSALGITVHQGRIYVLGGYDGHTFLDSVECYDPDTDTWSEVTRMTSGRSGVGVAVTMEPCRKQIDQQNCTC

In the case of `C=CC(=O)N1CC(C)(C)OC[C@H]1c1cc(Cl)cc(-c2ncnc(N)n2)c1` (single isomer, unassigned) [Compound 66], in the assay with Nrf2, the Emax worked out at 93%. Moreover, the IC50 on KEAP1 C151 came to 23 nM.

Take `C=CC(=O)N1CCOCC1c1cc(C#N)cc(-c2ccc(F)c(C(N)=O)c2)c1` (single isomer, unassigned) [Compound 67, 3′-(4-acryloylmorpholin-3-yl)-5′-cyano-4-fluoro-[1,1′-biphenyl]-3-carboxamide]: the Emax in the assay with Nrf2 amounted to 73%. The IC50 at KEAP1 C151 is 19 nM.

For `C=CC(=O)N1CCOCC1c1cc(Cl)cc(-c2cnc3cncn3c2)c1` (single isomer, unassigned) [Compound 68, 1-(3-(3-chloro-5-(imidazo[1,5-a]pyrimidin-3-yl)phenyl)morpholino)prop-2-en-1-one], the Emax with Nrf2 is 72%. In addition, at KEAP1 C151, the IC50 came out at 90 nM.

With `C=CC(=O)N1CC(C)(C)OCC1c1cc(Cl)nc(-c2ccc(F)c(C(N)=O)c2)c1` (single isomer, unassigned) [Compound 69, 5-(4-(4-acryloyl-6,6-dimethylmorpholin-3-yl)-6-chloropyridin-2-yl)-2-fluorobenzamide], the Emax in the assay with Nrf2 came out at 82%. In addition, the IC50 on KEAP1 C151 is 88.4 nM.

Turning to `C=CC(=O)N1CCOCC1c1cc(Cl)cc(-c2ccc(C(N)=O)cc2)c1` (single isomer, unassigned) [Compound 70, 3′-(4-acryloylmorpholin-3-yl)-5′-chloro-[1,1′-biphenyl]-4-carboxamide], the Emax in the assay on Nrf2 turned out to be 81%. Further, the IC50 on KEAP1 C151 turned out to be 54 nM.

With `C=CC(=O)N1CCOCC1c1cc(Cl)cc(-c2cccc(C(N)=O)c2)c1` (single isomer, unassigned) [Compound 71, 3′-(4-acryloylmorpholin-3-yl)-5′-chloro-[1,1′-biphenyl]-3-carboxamide], the Emax in the assay with Nrf2 is 78%. In addition, at KEAP1 C151, the IC50 worked out at 30 nM.

`C=CC(=O)N1CCOCC1c1cc(Cl)cc(-c2cc(F)cc(C(N)=O)c2)c1` (single isomer, unassigned) [Compound 72, 3′-(4-acryloylmorpholin-3-yl)-5′-chloro-5-fluoro-[1,1′-biphenyl]-3-carboxamide]: the Emax in the assay with Nrf2 was 80%. On KEAP1 C151, the IC50 is 27 nM.

Regarding `C=CC(=O)N1CCOCC1c1cc(Cl)cc(-c2cccc(C(N)=O)c2F)c1` (single isomer, unassigned) [Compound 73, 3′-(4-acryloylmorpholin-3-yl)-5′-chloro-2-fluoro-[1,1′-biphenyl]-3-carboxamide], the Emax with Nrf2 is 74%. Also, on KEAP1 C151, the IC50 is 56 nM.

With `C=CC(=O)N1CCN(C(C)=O)C[C@H]1c1cc(Cl)cc(-c2ncnc(N)n2)c1` (single isomer, unassigned) [Compound 74], the Emax in the assay on Nrf2 turned out to be 89%. Besides, the IC50 at KEAP1 C151 turned out to be 22 nM.

In the case of `C=CC(=O)N1CC2(CC2)OCC1c1cc(Cl)cc(-c2ccc(F)c(C(N)=O)c2)c1` (single isomer, unassigned) [Compound 76, 3′-(7-acryloyl-4-oxa-7-azaspiro[2.5]octan-6-yl)-5′-chloro-4-fluoro-[1,1′-biphenyl]-3-carboxamide], the Emax in the assay on Nrf2 came to 90%. The IC50 at KEAP1 C151 came to 24 nM.

Turning to `C=CC(=O)N1CCOCC1c1cc(Cl)cc(-c2nccc(C(N)=O)n2)c1` (single isomer, unassigned) [Compound 77, 2-(3-(4-acryloylmorpholin-3-yl)-5-chlorophenyl)pyrimidine-4-carboxamide], the Emax with Nrf2 was 82%. The IC50 on KEAP1 C151 was determined as 86 nM.

`C=CC(=O)N1CC(C)(C)OCC1c1cc(Cl)nc(-c2ccn3ccnc3c2)c1` (single isomer, unassigned) [Compound 78, 1-(5-(2-chloro-6-(imidazo[1,2-a]pyridin-7-yl)pyridin-4-yl)-2,2-dimethylmorpholino)prop-2-en-1-one]: the Emax in the assay on Nrf2 was 78%. Also, the IC50 at KEAP1 C151 is 18 nM.

Turning to `C=CC(=O)N1CCN(C(C)=O)C[C@H]1c1cc(Cl)cc(-c2ccc(F)c(C(N)=O)c2)c1` (single isomer, unassigned) [Compound 79], the Emax in the assay on Nrf2 is 85%. The IC50 at KEAP1 C151 came out at 18 nM.

Turning to `C=CC(=O)N1CCOC[C@H]1c1cc(Cl)cc(-c2cc(N)ncn2)c1` (single isomer, unassigned) [Compound 80], in the assay on Nrf2, the Emax is 94%. Besides, the IC50 at KEAP1 C151 turned out to be 290 nM.

As to `C=CC(=O)N1CCN(C(C)=O)C[C@H]1c1cc(Cl)cc(-c2ccnc(N)n2)c1` (single isomer, unassigned) [Compound 81], the Emax with Nrf2 came out at 85%. Moreover, the IC50 at KEAP1 C151 is 12 nM.

As to `C=CC(=O)N1CCOC[C@H]1c1cc(Cl)cc(-c2ccc3c(c2)C(=O)NC3)c1` (single isomer, unassigned) [Compound 82], the Emax in the assay on Nrf2 was 77%. Further, the IC50 on KEAP1 C151 is less than 10 nM.

Consider `C=CC(=O)N1CC2(CC2)OCC1c1cc(Cl)cc(-c2ccnc(C)n2)c1` (single isomer, unassigned) [Compound 83, 1-(6-(3-chloro-5-(2-methylpyrimidin-4-yl)phenyl)-4-oxa-7-azaspiro[2.5]octan-7-yl)prop-2-en-1-one], for which the Emax in the assay on Nrf2 is 86%. At KEAP1 C151, the IC50 was 89 nM.

As to `C=CC(=O)N1CC2(CC2)OCC1c1cc(Cl)cc(-c2ccnc(N)n2)c1` (single isomer, unassigned) [Compound 84, 1-(6-(3-(2-aminopyrimidin-4-y1)-5-chlorophenyl)-4-oxa-7-azaspiro[2.5]octan-7-yl)prop-2-en-1-one], the Emax in the assay on Nrf2 is 93%. Further, the IC50 at KEAP1 C151 stood at 47 nM.

On to `C=CC(=O)N1CCOCC1c1cc(Cl)cc(-c2cc(C(N)=O)n3ccnc3c2)c1` (single isomer, unassigned) [Compound 85, 7-(3-(4-acryloylmorpholin-3-yl)-5-chlorophenyl)imidazo[1,2-a]pyridine-5-carboxamide], for which the Emax with Nrf2 is 89%. Further, the IC50 at KEAP1 C151 turned out to be 36 nM.

Take `C=CC(=O)N1CCOC[C@H]1c1cc(Cl)cc(-c2cc(OC)ncn2)c1` (single isomer, unassigned) [Compound 86]: the Emax in the assay on Nrf2 was 83%. Besides, the IC50 on KEAP1 C151 is 7.3 nM.

In the case of `C=CC(=O)N1CCOC[C@H]1c1cc(Cl)cc(-c2nccc(C)n2)c1` (single isomer, unassigned) [Compound 87], the Emax with Nrf2 was determined as 81%. At KEAP1 C151, the IC50 is 10 nM.

As for `C=CC(=O)N1CCOC[C@H]1c1cc(Cl)cc(-c2nccc(OC)n2)c1` (single isomer, unassigned) [Compound 88], the Emax with Nrf2 was found to be 85%. For the same compound, on KEAP1 C151, the IC50 amounted to 14 nM.

For `C=CC(=O)N1CCOCC1c1cc(Cl)cc(-c2ccnc(C(N)=O)n2)c1` (single isomer, unassigned) [Compound 89, 4-(3-(4-acryloylmorpholin-3-yl)-5-chlorophenyl)pyrimidine-2-carboxamide], the Emax in the assay with Nrf2 was found to be 73%. Besides, on KEAP1 C151, the IC50 stood at 36 nM.

For `C=CC(=O)N1CCOC[C@H]1c1cc(Cl)cc(-c2ccnc(C)c2)c1` (single isomer, unassigned) [Compound 90], the Emax with Nrf2 was found to be 81%. Moreover, the IC50 at KEAP1 C151 was 120 nM.

For `C=CC(=O)N1CCOC[C@H]1c1cc(Cl)cc(-c2ccnc(OC)c2)c1` (single isomer, unassigned) [Compound 91], the Emax in the assay on Nrf2 is 82%. For the same compound, on KEAP1 C151, the IC50 turned out to be 11 nM.

Regarding `C=CC(=O)N1CCOC[C@H]1c1cc(Cl)cc(-c2ncc(N)cn2)c1` (single isomer, unassigned) [Compound 92], in the assay with Nrf2, the Emax is 94%. In addition, on KEAP1 C151, the IC50 amounted to 23 nM.

As for `C=CC(=O)N1CCOC[C@H]1c1cc(Cl)cc(-c2nc(C)cc(C)n2)c1` (single isomer, unassigned) [Compound 93], the Emax in the assay with Nrf2 was determined as 91%. Moreover, the IC50 on KEAP1 C151 came out at 40 nM.

In the case of `C=CC(=O)N1CCOCC1c1cc(Cl)cc(-c2cc(=O)[nH]cn2)c1` (single isomer, unassigned) [Compound 94, 6-(3-(4-acryloylmorpholin-3-yl)-5-chlorophenyl)pyrimidin-4(3H)-one], the Emax with Nrf2 is 87%. In addition, the IC50 at KEAP1 C151 worked out at 16 nM.

`C=CC(=O)N1CCOC[C@H]1c1cc(Cl)cc(-c2nc(C)cc(N)n2)c1` (single isomer, unassigned) [Compound 95]: in the assay on Nrf2, the Emax came out at 94%. For the same compound, the IC50 at KEAP1 C151 amounted to 25 nM.
